Measured values taken from the METLIN SMRT retention time set (Domingo-Almenara et al. 2019).

Test: gradient 5% acetonitrile 3 min, to 50% in 2 min, to 85% in 15 min, held 3 min, 100 µL/min
Details: column: Zorbax Extend-C18 2.1 x 50 mm; eluents: water / acetonitrile, 0.1% formic acid
In short: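 Mixtures of ~100 pure standards were chromatographed on a Zorbax Extend-C18 column (2.1 × 50 mm, 1.8 μm) at 100 μL/min using water and acetonitrile, each with 0.1% formic acid. Detection used a quadrupole time-of-flight mass spectrometer in positive and negative ionization mode, and data collection spanned 3 months. Retention time was obtained from adduct peaks picked computationally and each checked manually.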

Work on `COCCC1CCN(C(=O)CN(C)C(=O)c2ccc3cc[nH]c3c2)CC1` yielded an RP-LC retention time of 686 s.
Work on `O=C(Cn1nc2c(N3CCCCCC3)nccn2c1=O)NCc1ccc2c(c1)OCO2` yielded an RP-LC retention time of 659 s.
`C=CCNS(=O)(=O)CCNC(=O)c1ccccc1` showed an RP-LC retention time of 629 s.
Work on `Cc1ccc(C2CC(=O)c3cnc(Nc4nc(C)c5ccccc5n4)nc3C2)cc1` (stereo not given) yielded an RP-LC retention time of 772 s.
`CC[C@@H](c1cccc(O)c1)[C@@H](C)CN(C)C` showed an RP-LC retention time of 633 s.
For `CCn1cc(-c2nc(CC(=O)Nc3cc(C)ccc3F)cs2)c2cccnc21`, the RP-LC retention time was 1040 s.
In the case of `CC12C=CC(=O)C=C1CCC1C2=CCC2(C)C1CC[C@@H]2C(=O)CN1CCN(c2cc(N3CCCC3)nc(N3CCCC3)n2)CC1` (stereo not given in full), the RP-LC retention time is reported as 732 s.
Work on `CCC1(O)CCC12CCN(C(=O)CC(C)C)CC2` (stereo not given) yielded an RP-LC retention time of 744 s.
With `O=C(C1=CN(c2ccc3c(c2)OCO3)c2cc(Cl)ccc2S1(=O)=O)N1CCCC1` the RP-LC retention time was 847 s.
In the case of `CN1CCN(CCCNC(=O)C2c3ccccc3C(=O)N(C)C2c2cccs2)CC1` (stereo not given), the RP-LC retention time is reported as 573 s.
With `Cc1cc(C)cc(N2C=C(C(=O)N3CCOCC3)S(=O)(=O)c3ccccc32)c1` the RP-LC retention time was 826 s.
In the case of `O=C(CC1CCCCC1)N1CCCC(COc2ccc(C(=O)N3CCOCC3)cc2)C1` (stereo not given), the RP-LC retention time is reported as 856 s.
Work on `Cc1cccc(-c2nc(-c3cccc(-c4ccn[nH]4)c3)no2)c1` yielded an RP-LC retention time of 1100 s.
Compound `CCN(C(=O)Cn1nc2n(c1=O)CCCCC2)c1ccccc1` has an RP-LC retention time of 709 s.
With `O=C(c1ccc(N2C[C@H]3C[C@H](C2)[C@H]2CCCC(=O)N2C3)nc1)N1CCN(c2ncccn2)CC1` the RP-LC retention time was 567 s.
With `CCOc1cc(-c2ccc(F)cc2)nc2ccc(NC(=O)C3CCC3)cc12` the RP-LC retention time was 774 s.
With `CCc1nc(-c2csc(S(=O)(=O)N3CCC(C(=O)N4CCC5(CC4)OCCO5)CC3)c2)no1` the RP-LC retention time was 816 s.
With `CCn1cc(S(=O)(=O)Nc2cc(OC)cc(OC)c2)c2cccnc21` the RP-LC retention time was 817 s.
`CCCCNC(=O)c1cnn(-c2cc(-c3nc(C)no3)ccn2)c1C` gave an RP-LC retention time of 853 s.
For `COc1cccc(CNc2nccc(-n3nc(C)cc3C)n2)c1`, the RP-LC retention time was 808 s.
Compound `COc1cc(CN2CCC3(CC2)CC(O)CCO3)ccc1F` (stereo not given) has an RP-LC retention time of 541 s.
For `COc1cccc(CNC(=O)c2ccc3c(c2)N(C)C(=O)c2ccccc2O3)c1`, the RP-LC retention time was 852 s.
In the case of `CNC(=O)N1CCCN(S(C)(=O)=O)C(c2ccccc2)CC(=O)NCC1` (stereo not given), the RP-LC retention time is reported as 616 s.
With `CC(C)c1noc(-c2ccc(-n3cnc(C(=O)NCC4CC4)c3)nc2)n1` the RP-LC retention time was 839 s.
For `CCN1C(=O)C(C)(C(=O)NCc2ccc(C)cc2)Oc2cccnc21` (stereo not given), the RP-LC retention time was 912 s.
Compound `Cc1csc(CN2CCN(C(=O)c3cc(Cl)ccc3Cl)CC2)n1` has an RP-LC retention time of 654 s.
Compound `COc1ccccc1-c1cc(C(=O)N2CCN(c3cc(=O)n(C)c(=O)n3C)CC2)[nH]n1` has an RP-LC retention time of 665 s.
`COc1ccc(NC(=O)N2CCC(n3c(C(F)(F)F)nc4cccnc43)CC2)cc1` showed an RP-LC retention time of 898 s.
`COc1ccc(OC)c(C(C)NC(=O)C2CCCN(c3nccnc3Oc3ccccc3)C2)c1` (stereo not given) showed an RP-LC retention time of 998 s.
Work on `CCCCS(=O)(=O)N1CCc2c(c(-c3nnc(-c4ccc(F)cc4)o3)nn2C)C1` yielded an RP-LC retention time of 893 s.
With `CCNS(=O)(=O)c1cc(-c2c(CC)noc2NC(C)=O)ccc1C` the RP-LC retention time was 698 s.
Compound `Cc1cc(N2CCCC2)n2nc(CN3CCc4ccccc4C3)nc2n1` has an RP-LC retention time of 598 s.
Compound `CCN1C(=O)c2cccnc2Sc2cc(NC(=O)C3CCC3)ccc21` has an RP-LC retention time of 745 s.
Compound `COc1ccc(S(=O)(=O)N2CC3CN(C(=O)c4cccc(F)c4)CC(C2)O3)cc1` has an RP-LC retention time of 794 s.
`NS(=O)(=O)c1cccnc1Nc1ccc2c(c1)OCCO2` showed an RP-LC retention time of 735 s.
With `O=C(Cc1ccccc1Br)N1CCN(c2cc(-c3ccccc3)[nH]n2)CC1` the RP-LC retention time was 853 s.
For `Cc1cc(C)c(C)c(S(=O)(=O)NCC2(c3cccs3)CCOCC2)c1C`, the RP-LC retention time was 1050 s.
Work on `CC(C)Cn1nc2c(S(=O)(=O)N3CCOCC3)cccn2c1=O` yielded an RP-LC retention time of 707 s.
`O=C(Cc1csc(SCC(=O)c2ccccc2)n1)Nc1cccc2nsnc12` showed an RP-LC retention time of 981 s.
`CCn1c(=O)c2cc(C(=O)Nc3cccc(C(F)(F)F)c3)nn2c2ccccc21` gave an RP-LC retention time of 1080 s.
For `Cc1cc(N2CCN(c3ccccn3)CC2)n2nc(C(F)(F)F)c(-c3ccccc3)c2n1`, the RP-LC retention time was 855 s.
With `Cc1cc(C)cc(NC(=O)C2CCCN(S(=O)(=O)c3cc(-c4noc(C)n4)cs3)C2)c1` (stereo not given) the RP-LC retention time was 1060 s.
Work on `Cc1cccc(OCc2nc(CCN(C)C(=O)NCc3ccccc3)no2)c1` yielded an RP-LC retention time of 832 s.
With `CN(C)c1ccc(CNC(=O)c2nnc(-c3ccc(S(=O)(=O)N(C)C)cc3)o2)cc1` the RP-LC retention time was 658 s.
For `O=C(NCCC1=CCCCC1)c1ccc2ncnc(N3CCCC3)c2c1`, the RP-LC retention time was 688 s.
For `CCOC(=O)C1CCCN(c2nc(Nc3ccc(F)cc3)c3n[nH]nc3n2)C1` (stereo not given), the RP-LC retention time was 824 s.
For `Cc1ccc(-c2cc3c(=O)n(Cc4noc(CN5CCC(C)CC5)n4)ccn3n2)c(C)c1`, the RP-LC retention time was 742 s.
With `O=C(NCCOc1ccc(-c2ccccc2)nn1)c1ccc(=O)[nH]n1` the RP-LC retention time was 600 s.
Compound `O=C(c1ccccn1)N1CCCCC1c1nc(-c2cnccn2)no1` (stereo not given) has an RP-LC retention time of 637 s.
Compound `O=C(NCc1ccc2c(c1)N(C(=O)c1ccc(Cl)cc1)CC2)C1CC1` has an RP-LC retention time of 824 s.
Compound `Cc1ccc(Nc2nc(C(=O)N3CCN(S(C)(=O)=O)CC3)cs2)c(C)c1` has an RP-LC retention time of 752 s.
Compound `COC(=O)c1c(C)[nH]c(C(=O)N2CCC(CC(=O)NCCN3CCCCC3)CC2)c1C` has an RP-LC retention time of 584 s.
In the case of `COc1ccc(-c2cc(=O)n(CC(=O)Nc3cccc4nsnc34)cn2)cc1`, the RP-LC retention time is reported as 748 s.
`COc1ccc(NC(=O)NC2CCN(c3cc(N4CCCC4)cnn3)C2)cc1Cl` (stereo not given) gave an RP-LC retention time of 584 s.
Work on `O=C(NC1CCCCC1N1C(=O)CSC1=O)c1ccc[nH]c1=O` (stereo not given) yielded an RP-LC retention time of 606 s.
Work on `O=C(CN1CCc2ccccc2C1C(=O)N1CCCC1)N1CCN(c2ccccc2)CC1` (stereo not given) yielded an RP-LC retention time of 696 s.
`Cc1oc(C2CCC2)nc1C(=O)NCc1cccc(C(F)(F)F)c1` showed an RP-LC retention time of 1110 s.
For `Cc1noc(C2CCCCN2C(=O)c2ccoc2)n1` (stereo not given), the RP-LC retention time was 670 s.
With `CCC(=O)N1CCCC(c2nc(CNC(=O)C(C)C)cs2)C1` (stereo not given) the RP-LC retention time was 632 s.
For `O=C(Cc1ccc(F)cc1)N1CCc2cc(-c3ccno3)ccc21`, the RP-LC retention time was 940 s.
Compound `Cc1cc(C)cc(NC(=O)N2CCc3cn(C)c4cccc(c34)C2)c1` has an RP-LC retention time of 1050 s.
`CCOc1ccc2ncc(S(=O)(=O)c3ccc(Cl)cc3)c(N3CCN(C)CC3)c2c1` gave an RP-LC retention time of 680 s.
Compound `Cc1nc(-c2noc(-c3ccc(F)cc3)n2)cn1CC(=O)Nc1ccc(Cl)cc1` has an RP-LC retention time of 922 s.
Compound `COC(=O)CCc1sc(Nc2ccccn2)nc1-c1ccc(OC)cc1` has an RP-LC retention time of 810 s.
In the case of `CC(C)(C)NC(=O)N1CCOc2ccccc21`, the RP-LC retention time is reported as 892 s.
With `Cc1cc(C(=O)Nc2ccc(-c3nc(Cn4cccn4)c(C)o3)cc2)no1` the RP-LC retention time was 823 s.
`O=S(=O)(Cc1ccccc1F)N1CCCC(c2nn[nH]n2)C1` (stereo not given) showed an RP-LC retention time of 706 s.
`CCc1nc2nccc(-c3ccc(OC)cc3F)n2n1` showed an RP-LC retention time of 778 s.
`Cc1ccc(S(=O)(=O)N2CCC(CC(=O)N3CCN(c4ccccn4)CC3)CC2)cc1` gave an RP-LC retention time of 701 s.
In the case of `COCCCNC(=O)C1CCN(C(=O)c2ncn3c2COC(c2ccc(F)cc2)C3)CC1` (stereo not given), the RP-LC retention time is reported as 626 s.
In the case of `COc1cccc(CNC(=O)C2(C)CCCN(C(=O)Nc3ccc(F)c(Cl)c3)C2)c1` (stereo not given), the RP-LC retention time is reported as 959 s.
`O=C(Nc1ccc(N2CCN(C3CCCC3)C2=O)nc1)c1ccncc1` gave an RP-LC retention time of 635 s.
Work on `O=C(Nc1cc(F)ccc1Cl)c1csc(-c2ccc(N3CCCC3)nc2)n1` yielded an RP-LC retention time of 994 s.
For `Cc1noc(-c2nn(C)c3c2CN(C(=O)Nc2ccc(C(F)(F)F)cc2)CC3)n1`, the RP-LC retention time was 847 s.
For `O=C(NCC1CC1)c1sc2ncccc2c1-n1cccc1`, the RP-LC retention time was 902 s.
With `Cc1ccc(NC(=O)Nc2ccc3nc(N4CCN(C)CC4)cc(C)c3c2)cc1C` the RP-LC retention time was 614 s.
`CC(C)NS(=O)(=O)c1ccc(NC(=O)Cn2cncn2)cc1` showed an RP-LC retention time of 602 s.
In the case of `CCOC(=O)C1=C(CN2CCC(C(=O)OCC)CC2)NC(=O)NC1c1ccccc1` (stereo not given), the RP-LC retention time is reported as 643 s.
`COc1ccc(Br)c(C(=O)Nc2ccc3c(c2)N(C(=O)C2CCCC2)CC3)c1` gave an RP-LC retention time of 950 s.
`COc1ccccc1-c1noc(Cn2cnc3c(cnn3-c3ccc(C)cc3)c2=O)n1` showed an RP-LC retention time of 1100 s.
Work on `Cc1ccc(C)c(CNC(=O)c2nc3cccnc3n(CC(C)C)c2=O)c1` yielded an RP-LC retention time of 1060 s.
Compound `CCOc1ccc(CNCCSc2nnnn2C)cc1Cl` has an RP-LC retention time of 618 s.
For `Cc1nn(-c2ccc(C(=O)N3CCOCC3)cc2)c2c1C(=O)CC(C)(C)C2`, the RP-LC retention time was 689 s.
`COc1ccc(OC)c(NC(=O)c2cc3c(n(-c4ccc(F)cc4)c2=O)CCCC3=O)c1` gave an RP-LC retention time of 930 s.
`CCn1cnc(S(=O)(=O)N2CCC(C(=O)Nc3ncccc3C)CC2)c1` showed an RP-LC retention time of 570 s.
For `CC(C)c1ccc(-n2nc(N3CCN(C(=O)Cn4ccnc4)CC3)ccc2=O)cc1`, the RP-LC retention time was 731 s.
Work on `Cc1nc(OCC(=O)Nc2ccc(Cl)cc2Cl)c2ccccc2n1` yielded an RP-LC retention time of 831 s.
Compound `CCc1sc(NC(=O)C2CCCCC2)nc1-c1ccccc1` has an RP-LC retention time of 1200 s.
In the case of `CCn1cc(C(=O)NCc2ccc(C)cc2)c2cccnc21`, the RP-LC retention time is reported as 811 s.
`Cc1ccc(N2CC(c3noc(-c4cc(F)cc(F)c4)n3)CC2=O)cc1` (stereo not given) showed an RP-LC retention time of 1060 s.
